Measured values published in a melting point compilation (Tetko et al.; mined from patent text by program, amines drawn as free bases though some values may be those of a salt).

melting point [°C] | SMILES
168 to 169 | COc1ccc2c(C(=S)N(C)CC(=O)O)cccc2c1SC(F)(F)F
126 to 143 | CCC12CCC3C4=C(CCC3C1CCC2=O)CC(OC)=CC4 (configuration not stated)
56 to 58 | CC(=O)c1ccc2c(c1)CCC1(CC2)CC1
349 to 352 | O=C1c2ccccc2C(=O)N1CCn1nc(O)c2[nH]c3cc(Cl)ccc3c(=O)c2c1=O
228 to 229 | O=C1NCc2c(-c3ccccc3)cccc2N1CCN1CCOCC1
153 to 154 | CC(=O)N[C@@H](CS)C(=O)NCCSC(C)=O
138 | C=Cc1ccc2c(c1CCC(=O)OC)CCC(NS(=O)(=O)c1ccc(Cl)cc1)C2 (configuration not stated)
267 | Cc1nc(N)c2c(=O)n(C)c(=O)n(C)c2n1
58 to 60 | COC(=O)CCC(=O)OCC(C)(C)Oc1ccc2c(c1)CCc1c-2ccc2c1CCC2(C)C
80 | COc1cc2c(cc1OC)CN(C)C2
99 to 100 | COc1cc(CCCO)ccc1OCc1nc(-c2ccco2)oc1C
289 to 290 | Cc1cc2oc(C(=O)O)cc(=O)c2c(C)c1Cl
65 to 76 | COC(=O)c1c(F)cc(OCCNC(=O)C2Cc3ccccc3N2S(=O)(=O)c2ccc(-c3ccc(F)cc3OC)cc2)cc1F (configuration not stated)
90 to 92 | CCOC(=O)Nc1nc(=O)n(CC2CC2)cc1F
181 to 183 | CC(=O)OCc1ccc2oc(=O)c(C(=O)Oc3ccccc3C#N)cc2c1
> 300 | CC(C)OC(=O)c1ccc2c(c1)C(=O)CC(c1ccccc1)=N2
145 to 150 | CCCc1c(OCc2ccc(C(=O)O)c(OCC)c2)ccc(C(C)=O)c1O
137 to 138 | COCC1=C(C(=O)OC)C(c2ccccc2Cl)C(C(=O)OC)=C(COC)N1
150 | CCOC(=O)N1CCC(Nc2nc3ccccc3n2Cc2ccoc2C)CC1
52 to 54 | CCCC1CCC(CC(=O)N[C@@H](Cc2cc(F)cc(F)c2)[C@H](O)CNCc2cccc(CC)c2)CC1=O (some centres not stated)
174 to 177 | CCc1cn(C2CC(OCc3ccccc3)C(CNC(=O)Cc3c(Cl)cccc3Cl)O2)c(=O)[nH]c1=O (configuration not stated)
159 to 163 | COC1=C(OC)C(=O)C2=C(CCC(CCn3cnc4ccccc43)CC2)C1=O
195 to 197 | CC(C)(C)c1cc(C(=O)NCCc2cccc([N+](=O)[O-])c2)cc(C(C)(C)C)c1O
286 | CNC(=O)Nc1snc(SC)c1C#N
256 to 259 | Cc1c(-c2ccccc2)n(-c2ccc(F)cc2)c(-c2ccccc2)cc1=O

melting point [°C] | SMILES
190 to 192 | CC1(C(O)=C(Cc2ccc(Cl)cc2Cl)n2cncn2)COCOC1
88 to 92 | Cc1ccc(Cc2cnc(NCCCN(Cc3ccc(Cl)cc3)c3ccccn3)[nH]c2=O)cn1
148 to 150 | Cc1ccc(S(=O)(=O)c2nc(C(N)=O)n[nH]2)cc1
152 to 153 | c1cnn(-c2ccnc(-n3cccn3)n2)c1
135 to 136 | CCOC(=O)C1=C(C)Nc2ccnc(OC(C)C)c2C1c1ccccc1Cl (configuration not stated)
91 to 92 | O=C(NC1CCOC(O)C1)c1ccc2nonc2c1 (configuration not stated)
125 to 127 | CCC(=NOCC=CCl)C1=C(O)CC(c2ccc(NS(C)(=O)=O)cc2)CC1=O (configuration not stated)
69 to 70 | CCOC(=O)c1ccc(C2=NOCCS2)cc1
209 to 210 | COC(=O)CNC(=O)c1cc(C(=O)OC)c(O)c2ncc(Cc3ccc(F)cc3)cc12
170 | COCC(=O)N[C@H]1CC[C@H](CCN2CCN(c3nccc4c3CCO4)CC2)CC1
115 to 117 | CC(C)(C)NC(=O)c1ccncc1
119 to 121 | CCNC(=O)c1ccc(N2CCN(Cc3cc4c(c(OC)c3)OC(C)C(=O)N4)CC2)c(Cl)c1 (configuration not stated)
171 to 173 | Cc1c(C=NO)c2ccccc2n1-c1ccc(O)cc1
190 to 191 | Cc1ccc(S(=O)(=O)OCC2COc3ccc4c(=O)ccoc4c3O2)cc1 (configuration not stated)
106 to 108 | Cc1nc(-c2cc3cc(OCCNC[C@H](O)COc4ccccc4Cl)ccc3o2)no1
> 230 | CC(C)(Cn1c(N)nc2c(N)nc3ccccc3c21)NS(C)(=O)=O
249 to 252 | Nc1ncnc2c1ncn2CC(=O)Nc1ccc(-n2nc(C(F)(F)F)cc2C2CC2)cc1
243 | Cc1c(-c2ccccc2)oc2cc(NC(=O)C(=O)O)ccc2c1=O
113 to 115 | O=CC1c2ccccc2C(C=O)c2cc(Cl)ccc21 (configuration not stated)
124 to 129 | CC(C)(C)OC(=O)N1CCCN(c2ccncc2)CC1
153 to 154 | Nc1cc(C(=O)c2ccc(Oc3ccccc3)c(N)c2)ccc1Oc1ccccc1
35.2 | O=C(O)CCOCc1ccccc1
163 to 164 | O=C(OCc1cc(-c2ccccc2)c(=O)n2c1-c1sccc1CC2)N1CCOCC1
67 to 70 | CC(C)(CO)Oc1ccc(COc2ccc(Cl)cc2)cc1
201 to 202 | CNC(=O)CC1CN=C(c2cc3cc(Oc4ccc(S(C)(=O)=O)nc4)cc(OC)c3[nH]2)S1 (configuration not stated)

melting point [°C] | SMILES
108 to 110 | COc1cc(F)c(C)cc1N
110 to 112 | CC(C)Cc1nn(C)c(=O)c2cn(Cc3cccc4ccccc34)cc12
155 to 157 | CC(C)(C(=O)O)c1nnc2ccc(NCCCN3CCC(OC(c4ccccc4)c4ccccc4)CC3)nn12
169 to 171 | Nc1ccc(C(=O)O)c2ccccc12
165 to 168 | O=C(NCc1ccccc1)N1C(=O)[C@H](O)[C@@H]1c1ccccc1
223 to 225 | CC(=O)OCC(=O)C1=CCC2C3CCC4=CC(=O)C=CC4(C)C3(F)C(O)CC12C (configuration not stated)
182 to 185 | Cc1c(CN2CCc3c(c4cccc(Br)c4n3C)C2=O)ncn1S(=O)(=O)N(C)C
197 | CCc1c[nH]c(-c2ccc3c(c2)N(C(C)CN2CCCC2)c2ccccc2S3)n1 (racemic)
112 to 114 | O=[N+]([O-])c1cccc2cc(-c3ccccc3)cnc12
201 to 202 | COc1c(NC(=O)c2cc3cccc(Oc4ccnc(NCCN5CCOCC5)n4)c3n2C)cc(C(C)(C)C)cc1NS(C)(=O)=O
123 to 125 | CCCn1c2ccccc2c2c3c(nc(C)c21)CC(C)(C)CC3=O
190 to 200 | O=C(O)CC(NS(=O)(=O)c1ccc2ccccc2c1)c1ccccc1O (configuration not stated)
68 to 72 | ClCCOc1ccc(Cl)c2[nH]ccc12
160 | Cc1nn(C(CCCc2ccccc2)C(C)O)c2ncn(Cc3ccc(Cl)c(Cl)c3)c(=O)c12 (configuration not stated)
198 to 200 | CCCOC(=O)c1cc(NC(=O)c2ccccc2O)cc(Br)c1O
72 to 74 | COc1ccc(O)c(CC=Cc2ccccc2C#N)c1
159 to 161 | COCOc1ccccc1COc1cc2c(cc1-c1cc(C=CC(=O)O)ccc1OC)C(C)(C)CCC2(C)C
101 | Cc1cc(Cl)c(O)c(CN(C)C2CCCCCCC2)c1
98 | CCOCC(=O)Nc1occ(C(C)(C)C)c1C#N
118 to 119 | O=S(=O)(CCN1CC(c2ccccc2)C(c2ccc(Cl)cc2)=N1)c1cccc(C(F)(F)F)c1 (configuration not stated)
175 to 176 | COc1ccc(CC(=Nc2ccccc2)NC(=S)NCc2cccnc2)cc1
132 to 133 | COc1cc(COc2nn(C)cc2CO)ccc1OCc1nc(-c2ccco2)oc1C
222 to 224 | CS(=O)(=O)c1ccc(-c2nc3n(c2-c2ccncc2)CCC3)cc1
79 to 81 | CC(C)OCC1(C(C)(F)F)c2cc(C#N)ccc2Nc2ncc(Cl)cc21 (configuration not stated)
89 to 91 | CCCc1c(COc2ccc(Cc3nnn(CCCS(C)(=O)=O)n3)cc2)ccc(C(C)=O)c1O

melting point [°C] | SMILES
139 to 141 | O=C(NS(=O)(=O)NC(=O)OCc1ccccc1)OCc1ccccc1
165 to 166 | O=C1c2ccccc2-c2c1c1ccccc1c(=O)n2CCCCO
268 | CSc1nc(=O)[nH]c(C)c1Cl
221 to 222 | O=C1C(Cl)=C(Cl)C(=O)c2ncccc21
104 to 106 | CCC(=O)Oc1ccc(C(=O)CC)cc1F
230 | CN1CCC(NC(c2cccc(O)c2)c2nc3ccccc3[nH]2)CC1 (configuration not stated)
296 to 298 | CCc1cc(C=CN2C(=O)c3ccccc3C2=O)c(=O)[nH]c1C
117 to 118 | CCCCCC(=O)N(NC(=O)c1ccccc1)C(C)(C)C
184 to 185 | O=c1c(N2CCCCC2)nc2ccccc2n1-c1ccc(Cl)cc1
122 to 123 | Cc1ccc(C(=O)c2ccc([N+](=O)[O-])cc2)cc1
137 to 139 | COc1ccc(C(CC2=NOC(=O)C2)c2ccccc2)cc1OC1CCCC1 (configuration not stated)
161 to 165 | O=C(NCc1ncc(Cl)cc1Cl)c1c(Cl)cccc1Cl
79 to 81 | FC(F)(F)CN1CCC(n2ccc3ccccc32)CC1
105 to 107 | N#Cc1ccccc1OCCCN1CCC(NC(=O)Cc2ccccc2)CC1
187 | COc1cc(C)cc(OC)c1-c1ccccc1C(=O)O
> 280 | Cc1ccc(Nc2c3ccccc3nc3ccccc23)cc1[N+](=O)[O-]
76.6 to 77.4 | CC1(C)CC(C)(O)C2C3CCCCC3C2(C)C1 (configuration not stated)
81 to 83 | O=C1C=C2C=CC=C2O1
195 to 196 | Cc1c(C)c2c(c(C)c1NC(=O)CC(C)(C)C)C(c1ccc(C=O)cc1)CO2 (configuration not stated)
180 to 181 | O=C(O)CCc1cnc2ccccc2c1
84 to 86 | c1cn(CCCCn2ccnc2)cn1
177 to 178 | CCOC1CC(c2ccccc2)Oc2c1ccc1c2nc(C)n1C (configuration not stated)
104 to 106 | Cc1ccc(S(=O)(=O)N(C)c2ccc(C)c([N+](=O)[O-])c2)cc1
179 to 183 | COC(=O)CCC(=O)OC(=C1C(=O)N(C(N)=O)c2cc(Cl)c(F)cc21)c1cccs1
152 to 153 | CCCc1c(C(C)C)nc(C(C)C)c(C(C)O)c1-c1ccc(F)cc1O (configuration not stated)

SMILES | melting point [°C]
CC(=O)N1N=C(c2ccc([N+](=O)[O-])cc2)c2cc(Cl)c(Cl)cc2CC1C (configuration not stated) | 198 to 200
CCCc1c(C(=O)C=C(C)C)c2ccc(C(N)=O)cc2n1Cc1cc2c(cc1Cl)OCO2 | 227 to 229
